Structures can show the parent of a compound that is named as a salt. Where two headings read alike, the source gives them in different places.
Key:
[1] = tested on: fibrin-induced microglia activation; test: Image-based assay of fibrin-induced microglia activation (HTS and dose response); type: cell-based, rat; details: for IC50 / inhibition at 10 µM: Rattus norvegicus, Microglia; for inhibition at 10 µM: read-out: Fibrin % inhibition
[2] = tested on: LPS-induced microglia activation; test: Image-based assay of LPS-induced microglia activation (HTS and dose response); type: cell-based, rat; details: Rattus norvegicus, Microglia; for inhibition at 10 µM: read-out: LPS % inhibition
[3] = tested on: fibrin- and LPS-induced microglia activation; test: cells; type: cell-based, rat; details: for inhibition at 10 µM: Rattus norvegicus, Microglia
[4] = tested on: primary rat microglia; details: rat
[5] = tested on: primary rat microglia; details: rat; remark: listed apart in the source
[6] = in vitro; details: rat, Cell Toxicity IC50 (uM) [cFib assay]
[7] = in vitro; details: rat
[8] = tested on: primary rat microglia; test: Cell toxicity (dead cells, size <150 μm2) in LPS assay; details: read-out: Cell Toxicity IC50 (uM) [LPS assay]; LPS assay
[9] = 48 h, Table 1, dose response 0.001-20 μM, triplicates, primary rat microglia, 48 h, read-out: Fibrin IC50
[10] = Table 3, read-out: Fibrin IC50 (uM) (Suppl. Table 7)
[11] = dose response, fibrin-induced microglia activation, read-out: Fibrin IC50
[12] = fibrin-induced microglia activation, dose response, read-out: Fibrin IC50 (uM) (Suppl. Table 7)
[13] = primary microglia HTS, fibrin stimulation, increased cell size (>800 μm^2) as marker of activation
[14] = 48 h, Table 1, dose response 0.001-20 μM, triplicates, primary rat microglia, 48 h, read-out: LPS IC50
[15] = 48 h, primary microglia HTS, LPS stimulation, increased cell size (>800 μm^2) as marker of activation
[16] = LPS-induced microglia activation, dose response, read-out: LPS IC50 (uM) (Suppl. Table 7)
[17] = Table 3, read-out: LPS IC50 (uM) (Suppl. Table 7)
[18] = dose response, LPS-induced microglia activation, read-out: LPS IC50
[19] = HTS of 1907 compounds, quadrant by fibrin and LPS inhibition
[20] = Table 3, read-out: Cherry-picked Hit (Suppl. Table 7)
[21] = HTS hit classification, read-out: Hit
[22] = quadrant by fibrin and LPS inhibition in HTS of 1907 compounds
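For Fibrin % cell toxicity in this document: share of dead cells sized under 150 µm2 at 10 µM in fibrin-stimulated microglia HTS.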

| Compound | Fibrin Selectivity [1] | Fibrin Selectivity (LOG10) [1] | IC50 [1, 9] [µM] | IC50 [1, 10] [µM] | IC50 [1, 11] [µM] | IC50 [1, 12] [µM] | IC50 [2, 14] [µM] | inhibition at 10 µM [2, 15] [%] | IC50 [2, 16] [µM] | IC50 [2, 17] [µM] | IC50 [2, 18] [µM] | Quadrant (FIG. 5b) [3, 19] | inhibition at 10 µM [3, 20] [%] | inhibition at 10 µM [3, 21] [%] | Quadrant (FIG. 5b) ([3]; Table 1, screen at 10 μM) | Quadrant (FIG. 5b) ([3]; Table 3, screen at 10 μM) | Fibrin % cell toxicity [4] [%] | LPS % cell toxicity [5] [%] | IC50 ([6]; Table 3) [µM] | IC50 [7] [µM] | other results |
| --- | --- | --- | --- | --- | --- | --- | --- | --- | --- | --- | --- | --- | --- | --- | --- | --- | --- | --- | --- | --- | --- |
| O=C(NC(Cc1cc(=O)[nH]c2ccccc12)C(=O)O)c1ccc(Cl)cc1 (stereo not shown) [Rebamipide, reference compound] | 6 | 0.80 | 2 | 2 | 2 | 2 | 11 | 72 | 11 | 11 | 11 | Q2 | > 50 | > 50 | Q2 | Q2 | 1 | 2 | > 20 | > 20 | inhibition at 10 µM [1, 13]: 65%; Quadrant (FIG. 5b) [3, 22]: Q2; IC50 ([6]; cFib assay): > 20 µM; IC50 [8]: > 20 µM |
| O=P(O)(O)C(O)(Cn1ccnc1)P(=O)(O)O [Zoledronic acid, reference compound] | 4 | 0.55 | 2 | 2 | 2 | 2 | 8 | 49 | 8 | 8 | 8 | Q3 | > 50 | > 50 | Q3 | Q3 | 2 | 1 | > 20 | > 20 | inhibition at 10 µM [1, 13]: 83%; Quadrant (FIG. 5b) [3, 22]: Q3; IC50 ([6]; cFib assay): > 20 µM; IC50 [8]: > 20 µM |
| CC[C@]1(O)C[C@@H]2CN(CCc3c([nH]c4ccccc34)[C@@](C(=O)OC)(c3cc4c(cc3OC)N(C)[C@H]3[C@@](O)(C(=O)OC)[C@H](OC(C)=O)[C@]5(CC)C=CCN6CC[C@]43[C@@H]65)C2)C1 [Vinblastine sulfate, reference compound] | 11 | 1.05 | 0.02 | 0.02 | 0.02 | 0.02 | 0.2 | 108 | 0.2 | 0.2 | 0.2 | Q2 | > 50 | > 50 | Q2 | Q2 | 2 | 8 | > 20 | > 20 | IC50 ([1]; Table 7, read-out: fib_IC50): 1.39 µM; inhibition at 10 µM [1, 13]: 106%; IC50 ([2]; Table 7, read-out: LPS_IC50): 0.628 µM; Quadrant (FIG. 5b) ([3]; Table 2, screen at 10 μM): Q2; Activity ([3]; Table 7, fib = fibrin, LPS, tox = toxicity): fib/LPS; Quadrant (FIG. 5b) [3, 22]: Q2; IC50 ([6]; cFib assay): > 20 µM; IC50 [8]: > 20 µM |
| O=c1[nH]cc(F)c(=O)[nH]1 [Fluorouracil, reference compound] | 3 | 0.44 | 7 | 7 | 7 | 7 | > 20 | 40 | > 20 | > 20 | > 20 | Q3 | > 50 | > 50 | Q3 | Q3 | 1 | 1 | > 20 | > 20 | inhibition at 10 µM [1, 13]: 56%; Quadrant (FIG. 5b) [3, 22]: Q3; IC50 ([6]; cFib assay): > 20 µM; IC50 [8]: > 20 µM |
| C[C@H]1C[C@@H]2[C@H]([C@@H](O)C[C@@]3(C)[C@H]2CC[C@]3(O)C(=O)CO)[C@@]2(C)C=CC(=O)C=C12 [Methylprednisolone, reference compound] | – | – | < 0.001 | < 0.001 | < 0.001 | < 0.001 | 0.02 | 86 | 0.02 | 0.02 | 0.02 | Q2 | > 50 | > 50 | Q2 | Q2 | 3 | 2 | > 20 | > 20 | IC50 ([1]; Table 7, read-out: fib_IC50): 0.003 µM; inhibition at 10 µM [1, 13]: 110%; IC50 ([2]; Table 7, read-out: LPS_IC50): 0.002 µM; Quadrant (FIG. 5b) ([3]; Table 2, screen at 10 μM): Q2; Quadrant (FIG. 5b) [3, 22]: Q2; IC50 ([6]; cFib assay): > 20 µM; IC50 [8]: > 20 µM |
| CC(=O)O[C@]1(C(C)=O)CC[C@H]2[C@@H]3C=C(C)C4=CC(=O)CC[C@]4(C)[C@H]3CC[C@@]21C [Megestrol acetate, reference compound] | 4 | 0.63 | 5 | 5 | 5 | 5 | > 20 | 24 | > 20 | > 20 | > 20 | Q3 | > 50 | > 50 | Q3 | Q3 | 1 | – | > 20 | > 20 | IC50 ([6]; cFib assay): > 20 µM; IC50 [8]: > 20 µM |
| CO[C@H]1C[C@H](O[C@@H]2/C(C)=C/C[C@@H]3C[C@@H](C[C@]4(CC[C@H](C)[C@@H](C5CCCCC5)O4)O3)OC(=O)[C@@H]3C=C(C)/C(=N/O)[C@H]4OC/C(=C\C=C\[C@@H]2C)[C@]43O)O[C@@H](C)[C@@H]1O [Selamectin, reference compound] | 3 | 0.51 | – | – | – | – | – | – | – | – | – | – | – | – | – | – | 1 | 1 | – | > 20 | IC50 ([1]; 48 h, read-out: Fibrin IC50): 6 µM; inhibition at 10 µM [1]: 51%; IC50 ([1]; read-out: Fibrin IC50 (uM)): 6 µM; IC50 ([1]; read-out: Fibrin IC50 (uM) (Suppl. Table 7)): 6 µM; inhibition at 10 µM ([2]; 48 h): 42%; IC50 ([2]; 48 h, read-out: LPS IC50): > 20 µM; IC50 ([2]; read-out: LPS IC50 (uM)): > 20 µM; IC50 ([2]; read-out: LPS IC50 (uM) (Suppl. Table 7)): > 20 µM; Quadrant (FIG. 5b) [3]: Q3; inhibition at 10 µM ([3]; read-out: Cherry-picked Hit (Suppl. Table 7)): > 50%; inhibition at 10 µM ([3]; read-out: Hit): > 50%; IC50 [6]: > 20 µM |

From patent US20210330611A1, “THERAPY FOR NEUROLOGICAL DISEASES/DISORDERS” (priority 2020, published 2021)
